Results as given in publication PMC9932578 (Clinical Cancer Research, 2022).

How the values were obtained:
[1] = 60 mg QD NHL cohort, n = 1/18
[2] = system: gene expression (Hallmark gene sets); assay: RNA-seq differential expression and GSEA in bone marrow aspirates; type: in vivo, human

Question: What does the source list for `CCNC(=O)C[C@@H]1N=C(c2ccc(Cl)cc2)c2cc(OC)ccc2-n2c(C)nnc21` [molibresib]?
Answer: DLT: thrombocytopenia [1]: 6%; share of differentially expressed genes downregulated (289/398) ([2]; across all 13 patients): 72.6%; differentially expressed genes shared between NRs and responders ([2]; in vivo): 61 genes; genes with significant differential expression ([2]; non-responders (NR)): 884 genes; genes with significant differential expression ([2]; responders (CR + PR)): 107 genes
